{
  "source": "ChEMBL document CHEMBL1201862",
  "about": "“PubChem BioAssay data set” (2004)",
  "key": {"[1]": {"molecular_target": "T1, Methionyl-tRNA synthetase, putative (Trypanosoma brucei brucei, UniProt Q38C91)", "T1 sequence (Q38C91 whole entry)": "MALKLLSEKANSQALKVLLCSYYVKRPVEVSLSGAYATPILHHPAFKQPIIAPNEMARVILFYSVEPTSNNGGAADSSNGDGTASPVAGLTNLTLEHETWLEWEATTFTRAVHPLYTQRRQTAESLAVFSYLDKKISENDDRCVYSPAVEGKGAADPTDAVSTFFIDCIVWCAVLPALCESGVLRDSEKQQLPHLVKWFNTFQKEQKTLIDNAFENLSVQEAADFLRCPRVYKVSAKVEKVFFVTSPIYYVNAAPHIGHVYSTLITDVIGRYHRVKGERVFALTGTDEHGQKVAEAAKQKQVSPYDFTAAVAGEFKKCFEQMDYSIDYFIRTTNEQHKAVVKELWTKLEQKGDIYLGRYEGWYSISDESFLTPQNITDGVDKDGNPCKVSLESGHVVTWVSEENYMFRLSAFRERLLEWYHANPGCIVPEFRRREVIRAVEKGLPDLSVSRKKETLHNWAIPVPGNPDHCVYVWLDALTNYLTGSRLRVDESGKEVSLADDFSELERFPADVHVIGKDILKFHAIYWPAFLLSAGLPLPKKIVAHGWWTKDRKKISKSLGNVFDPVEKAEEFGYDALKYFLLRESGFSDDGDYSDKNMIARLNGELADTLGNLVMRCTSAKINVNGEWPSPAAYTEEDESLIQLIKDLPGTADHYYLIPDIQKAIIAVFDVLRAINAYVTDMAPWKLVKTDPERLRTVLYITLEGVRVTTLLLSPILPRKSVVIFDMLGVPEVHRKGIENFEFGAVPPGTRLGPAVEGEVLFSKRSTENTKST", "assay_type": "functional, Trypanosoma brucei brucei strain 927/4 GUTat10.1"}, "[2]": {"test": "Counterscreen for inhibitors of Trypanosoma brucei methionyl tRNA synthetase (MetRS): Luminescence-based cell-based high throughput dose response assay to identify compounds that are cytotoxic to Jurkat human T lymphocyte cells.", "assay_type": "functional"}, "Streptococcus": {"system": "Streptococcus", "test": "Group A Streptococcus viability loss, dose response, counter-screen for streptokinase expression inhibitor project, luminescence, BacTiterGlo (AID 1915);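 note: potency for reduction of bacterial viability or growth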", "assay_type": "functional, organism-based"}, "[3]": {"system": "Streptococcus sp. 'group A'", "test": "growth inhibition of control SK(-) GAS strain, dose response, counter-screen for streptokinase expression inhibitor project, luminescence, kanamycin, BacTiterGlo, confirmation (AID 1900)", "assay_type": "functional, organism-based"}, "[4]": {"molecular_target": "T1, Methionyl-tRNA synthetase, putative", "assay_type": "functional, Trypanosoma brucei brucei strain 927/4 GUTat10.1", "remark": "listed apart in the source"}, "Streptokinase A": {"molecular_target": "T2, Streptokinase A (Streptococcus pyogenes serotype M1, UniProt P10520)", "T2 sequence (P10520 whole entry)": "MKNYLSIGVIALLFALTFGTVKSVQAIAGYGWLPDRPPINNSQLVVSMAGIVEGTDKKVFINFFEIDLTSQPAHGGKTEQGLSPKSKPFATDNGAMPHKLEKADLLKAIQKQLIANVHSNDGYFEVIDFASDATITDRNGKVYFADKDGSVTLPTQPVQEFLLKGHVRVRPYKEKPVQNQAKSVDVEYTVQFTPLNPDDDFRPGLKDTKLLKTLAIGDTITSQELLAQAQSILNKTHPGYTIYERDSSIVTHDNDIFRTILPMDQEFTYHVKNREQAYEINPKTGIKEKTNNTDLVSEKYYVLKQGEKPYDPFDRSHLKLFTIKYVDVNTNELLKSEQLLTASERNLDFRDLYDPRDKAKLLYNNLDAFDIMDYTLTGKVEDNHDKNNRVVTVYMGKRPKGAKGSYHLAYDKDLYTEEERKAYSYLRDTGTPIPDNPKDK", "test": "S. pyogenes streptokinase expression inhibitors, potency, dose response, plasminogen activation absorbance, OD405 (AID 1914);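 note: secreted streptokinase activity via plasminogen activation per viability signal from cell pellet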", "assay_type": "functional, Streptococcus pyogenes M1 GAS"}, "[5]": {"molecular_target": "T3, Carboxy-terminal domain RNA polymerase II polypeptide A small phosphatase 1 (Homo sapiens, UniProt Q9GZU7)", "T3 sequence (Q9GZU7 whole entry)": "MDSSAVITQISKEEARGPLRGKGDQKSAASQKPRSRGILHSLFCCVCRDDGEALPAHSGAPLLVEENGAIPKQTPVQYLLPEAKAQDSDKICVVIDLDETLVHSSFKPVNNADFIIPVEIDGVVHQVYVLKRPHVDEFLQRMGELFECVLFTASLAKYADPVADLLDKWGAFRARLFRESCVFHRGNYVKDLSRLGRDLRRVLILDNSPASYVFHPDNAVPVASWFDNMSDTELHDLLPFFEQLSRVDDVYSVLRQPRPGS", "test": "inhibitors of CTDSP1, concentration-response testing, biochemical assay, absorbance-based, actives from ultra-high-throughput screening (AID 540297)", "assay_type": "functional"}, "[6]": {"molecular_target": "Tyrosine-protein phosphatase non-receptor type 11 (Homo sapiens, UniProt Q06124)", "sequence (Q06124 whole entry)": "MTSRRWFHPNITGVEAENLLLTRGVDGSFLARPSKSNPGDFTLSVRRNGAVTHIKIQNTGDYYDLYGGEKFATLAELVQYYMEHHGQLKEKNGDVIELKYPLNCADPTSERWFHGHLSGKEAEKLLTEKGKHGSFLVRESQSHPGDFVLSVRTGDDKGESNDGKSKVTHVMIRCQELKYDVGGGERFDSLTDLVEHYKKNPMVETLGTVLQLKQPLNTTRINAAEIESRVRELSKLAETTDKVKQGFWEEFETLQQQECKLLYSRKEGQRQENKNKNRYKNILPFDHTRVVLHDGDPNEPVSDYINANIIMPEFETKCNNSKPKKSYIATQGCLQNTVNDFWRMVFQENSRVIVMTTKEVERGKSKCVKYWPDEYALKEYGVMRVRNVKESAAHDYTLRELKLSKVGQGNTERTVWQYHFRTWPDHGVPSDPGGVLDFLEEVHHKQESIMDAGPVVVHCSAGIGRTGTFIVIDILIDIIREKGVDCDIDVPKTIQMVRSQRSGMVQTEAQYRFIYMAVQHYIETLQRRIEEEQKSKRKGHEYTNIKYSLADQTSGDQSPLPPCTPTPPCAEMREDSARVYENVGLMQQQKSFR", "test": "SHP2 phosphatase inhibition, dose response, selectivity assay for STEP inhibitor project, biochemical (AID 602367)", "assay_type": "functional", "details": "read-out: IC50_Mean"}, "Caspase-6": {"molecular_target": "T4, Caspase-6 (Homo sapiens, UniProt P55212)", "T4 sequence (P55212 whole entry)": "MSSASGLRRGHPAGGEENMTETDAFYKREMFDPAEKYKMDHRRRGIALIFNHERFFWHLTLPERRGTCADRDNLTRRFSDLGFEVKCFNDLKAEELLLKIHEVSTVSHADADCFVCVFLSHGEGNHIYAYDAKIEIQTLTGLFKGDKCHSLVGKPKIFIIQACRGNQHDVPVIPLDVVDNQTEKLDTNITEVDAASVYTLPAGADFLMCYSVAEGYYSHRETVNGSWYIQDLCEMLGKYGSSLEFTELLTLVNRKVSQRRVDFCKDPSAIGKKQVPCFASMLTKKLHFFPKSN", "test": "human caspase-6 inhibitors, dose response, biochemical, VEID-R110 fluorescence, cherry-pick (AID 720632)"}, "[7]": {"molecular_target": "Tyrosine-protein phosphatase non-receptor type 5 (Homo sapiens, UniProt P54829)", "sequence (P54829 whole entry)": "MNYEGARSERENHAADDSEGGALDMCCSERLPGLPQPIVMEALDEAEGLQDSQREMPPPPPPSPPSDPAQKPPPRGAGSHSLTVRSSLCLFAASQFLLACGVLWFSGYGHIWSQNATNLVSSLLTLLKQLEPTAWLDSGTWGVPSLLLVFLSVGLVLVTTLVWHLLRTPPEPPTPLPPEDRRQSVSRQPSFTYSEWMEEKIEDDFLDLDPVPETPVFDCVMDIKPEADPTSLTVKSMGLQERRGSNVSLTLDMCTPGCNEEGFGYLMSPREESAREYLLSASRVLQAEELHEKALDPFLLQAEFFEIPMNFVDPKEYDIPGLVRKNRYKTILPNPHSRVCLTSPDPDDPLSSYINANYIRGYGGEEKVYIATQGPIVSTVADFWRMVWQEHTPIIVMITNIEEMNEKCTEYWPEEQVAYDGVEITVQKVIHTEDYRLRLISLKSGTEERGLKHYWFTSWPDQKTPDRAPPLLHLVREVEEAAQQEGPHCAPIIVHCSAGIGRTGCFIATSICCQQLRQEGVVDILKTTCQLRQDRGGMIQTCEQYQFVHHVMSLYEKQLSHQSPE", "test": "STEP phosphatase inhibitors, confirmation, biochemical, fluorescence intensity, uHTS hits (AID 602372)", "assay_type": "functional", "details": "read-out: IC50_Mean"}, "[8]": {"molecular_target": "Dual specificity protein phosphatase 3 (Homo sapiens, UniProt P51452)", "sequence (P51452 whole entry)": "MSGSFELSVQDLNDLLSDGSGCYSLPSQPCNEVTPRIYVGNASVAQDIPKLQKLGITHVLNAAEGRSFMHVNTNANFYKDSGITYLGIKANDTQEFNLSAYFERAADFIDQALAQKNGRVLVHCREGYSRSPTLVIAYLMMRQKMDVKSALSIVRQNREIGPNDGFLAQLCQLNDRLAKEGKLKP", "test": "VHR phosphatase inhibition, dose response, selectivity assay for STEP inhibitor project, biochemical (AID 602374)", "assay_type": "functional", "details": "read-out: IC50_Mean"}, "[9]": {"molecular_target": "T5, Low molecular weight phosphotyrosine protein phosphatase (Homo sapiens, UniProt P24666)", "T5 sequence (P24666 whole entry)": "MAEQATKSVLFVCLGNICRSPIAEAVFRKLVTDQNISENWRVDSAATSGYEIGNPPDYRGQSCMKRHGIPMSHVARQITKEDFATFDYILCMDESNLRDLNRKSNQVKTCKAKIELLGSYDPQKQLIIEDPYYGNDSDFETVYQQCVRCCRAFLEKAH", "assay_type": "functional", "details": "read-out: IC50_Mean"}, "[10]": {"molecular_target": "T5, Low molecular weight phosphotyrosine protein phosphatase", "assay_type": "functional", "details": "read-out: IC50_Mean", "remark": "listed apart in the source"}, "[11]": {"molecular_target": "Photoreceptor-specific nuclear receptor (Homo sapiens, UniProt Q9Y5X4)", "sequence (Q9Y5X4 whole entry)": "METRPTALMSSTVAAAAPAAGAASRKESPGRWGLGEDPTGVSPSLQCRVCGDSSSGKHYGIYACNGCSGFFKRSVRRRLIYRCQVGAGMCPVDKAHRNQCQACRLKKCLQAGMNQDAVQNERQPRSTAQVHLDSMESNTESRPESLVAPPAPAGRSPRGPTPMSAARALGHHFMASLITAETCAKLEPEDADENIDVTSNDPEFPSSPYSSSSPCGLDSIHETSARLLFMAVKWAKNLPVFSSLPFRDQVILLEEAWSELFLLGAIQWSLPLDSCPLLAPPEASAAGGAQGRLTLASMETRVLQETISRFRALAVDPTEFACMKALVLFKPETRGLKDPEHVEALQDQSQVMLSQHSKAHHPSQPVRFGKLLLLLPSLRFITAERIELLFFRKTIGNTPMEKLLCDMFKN", "assay_type": "functional, cell-based"}},
  "note": "Active and inactive are the calls of the source.",
  "data": [
    {"compound": "COc1ccc(Cc2nnc(S)n2NC(=O)Nc2ccc(Cl)c(Cl)c2)cc1", "values": [
      {"measurement": "IC50", "setting": "[1]", "value": "76.2 µM (inactive)"},
      {"measurement": "IC50", "setting": "[2]", "value": "54.2 µM (inactive)"},
      {"measurement": "EC50", "setting": "Streptococcus", "value": "63.3 µM (active)"},
      {"measurement": "EC50", "setting": "[3]", "value": "3.39 µM (active)"},
      {"measurement": "IC50", "setting": "[4]", "value": "17.7 µM (inactive)"},
      {"measurement": "EC50", "setting": "Streptokinase A", "value": "20.3 µM (active)"}
    ]},
    {"compound": "CC(=O)N1CCOc2ccc(S(=O)(=O)NCc3ccc(F)cc3)cc21", "values": [
      {"measurement": "IC50", "setting": "[5]", "value": "9.32 µM (active)"},
      {"measurement": "IC50", "setting": "[6]", "value": "4.64 µM (active)"},
      {"measurement": "AC50", "setting": "Caspase-6", "value": "11.2 µM (active)"},
      {"measurement": "IC50", "setting": "[7]", "value": "56.5 µM (inactive)"},
      {"measurement": "IC50", "setting": "[8]", "value": "2.66 µM (active)"}
    ]},
    {"compound": "O=C(CCc1ccccc1)NNC(=O)c1ccc(NC(=O)c2ccccc2)cc1", "values": [
      {"measurement": "IC50", "setting": "[5]", "value": "6.27 µM (active)"},
      {"measurement": "IC50", "setting": "[9]", "value": "24.9 µM (inactive)"},
      {"measurement": "IC50", "setting": "[6]", "value": "3.98 µM (active)"},
      {"measurement": "IC50", "setting": "[10]", "value": "31.2 µM (inactive)"},
      {"measurement": "IC50", "setting": "[7]", "value": "17.3 µM (active)"},
      {"measurement": "IC50", "setting": "[8]", "value": "3.9 µM (active)"}
    ]},
    {"compound": "O=C(NC(=O)N1CCN(c2cccc(Cl)c2)CC1)c1ccccc1", "values": [
      {"measurement": "IC50", "setting": "[11]", "value": "4.75 µM (active)"}
    ]}
  ]
}
